Measured values as given in paper PMC7407272, “Induction of Lysosome Membrane Permeabilization as a Therapeutic Strategy to Target Pancreatic Cancer Stem Cells” (Cancers, 2020).

What was measured:
BLK = molecular target: T1, BLK (Homo sapiens, UniProt P51451); test: KINOMEscan; format: binding; settings: read-out: % Ctrl
T1 construct: purchased DiscoveRx KINOMEscan

TYK2 = molecular target: T2, TYK2 (Homo sapiens, UniProt P29597); test: TYK2 kinase assay (ProQinase); format: biochemical; settings: kinase orthogonal assay
T2 construct: purchased ProQinase

CDC2L2 = molecular target: T3, CDC2L2 (Homo sapiens, UniProt Q9UQ88); test: KINOMEscan; format: binding; settings: read-out: % Ctrl
T3 construct: purchased DiscoveRx KINOMEscan
T3 sequence (Q9UQ88 whole entry): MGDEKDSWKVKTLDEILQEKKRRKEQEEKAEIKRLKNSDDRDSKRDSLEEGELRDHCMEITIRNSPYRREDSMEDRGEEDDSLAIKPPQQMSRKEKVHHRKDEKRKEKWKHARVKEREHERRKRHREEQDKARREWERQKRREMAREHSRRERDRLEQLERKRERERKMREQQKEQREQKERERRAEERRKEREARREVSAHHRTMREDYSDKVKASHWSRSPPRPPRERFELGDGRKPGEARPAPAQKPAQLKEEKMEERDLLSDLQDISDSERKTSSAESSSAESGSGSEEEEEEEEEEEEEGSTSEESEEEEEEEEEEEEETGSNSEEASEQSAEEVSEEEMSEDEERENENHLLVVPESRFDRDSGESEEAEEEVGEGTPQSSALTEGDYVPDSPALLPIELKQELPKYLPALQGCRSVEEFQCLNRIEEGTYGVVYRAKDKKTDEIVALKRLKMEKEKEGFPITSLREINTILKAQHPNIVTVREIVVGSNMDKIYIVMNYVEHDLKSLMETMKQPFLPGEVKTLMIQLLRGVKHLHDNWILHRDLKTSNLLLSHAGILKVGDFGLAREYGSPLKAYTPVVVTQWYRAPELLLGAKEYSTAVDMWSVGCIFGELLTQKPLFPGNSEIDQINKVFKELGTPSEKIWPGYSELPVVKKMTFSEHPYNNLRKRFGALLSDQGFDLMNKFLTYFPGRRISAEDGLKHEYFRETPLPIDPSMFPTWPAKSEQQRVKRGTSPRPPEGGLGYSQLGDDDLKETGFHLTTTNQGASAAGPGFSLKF

GCN2(KD2,S808G) = molecular target: T4, GCN2(KD2,S808G) (Homo sapiens, UniProt Q9P2K8, S808G); test: KINOMEscan; format: binding; settings: read-out: % Ctrl
T4 construct: purchased DiscoveRx KINOMEscan

PAK4 = molecular target: T5, PAK4 (Homo sapiens, UniProt O96013); test: KINOMEscan; format: binding; settings: read-out: % Ctrl
T5 construct: purchased DiscoveRx KINOMEscan

re-plated PDAC2 spheres = test: Acridine orange lysosomal integrity assay; format: cell-based, human
Experimental: Cells were analyzed with a 4-laser Attune NxT Acoustic Cytometer (ThermoFisher Scientific). […] Autofluorescent cells were excited with blue laser 488nm and selected as the intersection with the filters 530/40 and 580/30 as previously described. For lysosomes quantification, Acridine Orange (AO) (A1301, Thermo Fisher Scientific, Waltham, MA, USA) or Lysotracker Deep Red (DR) (L12492, Molecular probes, Life Technologies, Waltham, MA, USA) were used. […] Bafilomycin A1 (100 nM, Calbiochem, San Diego, CA, USA) was included as a positive control for lysosome disruption. For Annexin V staining, floating and attached cells were pooled and resuspended in 1× AnnexinV staining buffer containing AnnexinV-APC diluted 1:20 (Biotium, Freemont, CA, USA) and incubated for 20 min at room temperature prior to flow cytometric analysis. For all assays, DAPI was used to mark and exclude dead cells, and data were analyzed using the software FlowJo v9.3 (Tree Star Inc., Ashland, OR, USA).
Re-plated spheres were loaded with 1 µg/mL acridine orange (A1301, Thermo Fisher Scientific) for 15 min then washed 3 times with PBS. […]

EGFR(L858R) = molecular target: T6, EGFR(L858R) (Homo sapiens, UniProt P00533, L858R); test: KINOMEscan; format: binding; settings: read-out: % Ctrl
T6 construct: purchased DiscoveRx KINOMEscan
T6 sequence (P00533 25-1210 L858R): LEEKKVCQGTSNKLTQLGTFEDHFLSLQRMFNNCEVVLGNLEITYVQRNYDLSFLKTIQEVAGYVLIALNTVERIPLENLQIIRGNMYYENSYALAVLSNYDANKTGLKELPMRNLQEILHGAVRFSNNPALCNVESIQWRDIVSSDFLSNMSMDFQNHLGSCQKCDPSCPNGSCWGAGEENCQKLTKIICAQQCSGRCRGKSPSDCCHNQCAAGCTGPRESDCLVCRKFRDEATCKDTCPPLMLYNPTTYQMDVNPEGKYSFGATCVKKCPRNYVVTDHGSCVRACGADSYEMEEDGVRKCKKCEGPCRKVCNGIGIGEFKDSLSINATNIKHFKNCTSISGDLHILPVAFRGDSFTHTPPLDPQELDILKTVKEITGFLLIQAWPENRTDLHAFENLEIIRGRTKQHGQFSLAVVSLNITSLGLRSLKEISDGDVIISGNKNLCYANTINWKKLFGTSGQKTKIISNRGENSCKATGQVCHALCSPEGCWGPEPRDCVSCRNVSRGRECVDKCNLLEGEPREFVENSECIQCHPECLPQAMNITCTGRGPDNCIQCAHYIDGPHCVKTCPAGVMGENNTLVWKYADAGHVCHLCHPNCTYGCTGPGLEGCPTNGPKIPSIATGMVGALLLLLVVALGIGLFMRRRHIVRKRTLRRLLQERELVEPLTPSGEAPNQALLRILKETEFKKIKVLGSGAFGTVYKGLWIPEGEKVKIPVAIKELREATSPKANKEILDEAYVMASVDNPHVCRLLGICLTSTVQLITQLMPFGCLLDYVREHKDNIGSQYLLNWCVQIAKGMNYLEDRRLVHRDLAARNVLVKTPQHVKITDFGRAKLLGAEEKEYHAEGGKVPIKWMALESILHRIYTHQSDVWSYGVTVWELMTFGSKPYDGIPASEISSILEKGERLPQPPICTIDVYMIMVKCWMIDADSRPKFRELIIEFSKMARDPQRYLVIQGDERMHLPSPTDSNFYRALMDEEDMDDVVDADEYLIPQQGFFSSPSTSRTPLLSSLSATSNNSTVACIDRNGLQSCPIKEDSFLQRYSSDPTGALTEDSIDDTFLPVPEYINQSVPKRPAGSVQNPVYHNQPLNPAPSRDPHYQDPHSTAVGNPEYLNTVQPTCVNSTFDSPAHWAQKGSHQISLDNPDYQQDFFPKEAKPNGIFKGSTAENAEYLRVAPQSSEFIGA

RSK2(KD2-C-t.) = molecular target: T7, RSK2(KD2-C-t.) (Homo sapiens, UniProt P51812); test: KINOMEscan; format: binding; settings: read-out: % Ctrl
T7 construct: RSK2(KD2-C-t.); purchased DiscoveRx KINOMEscan
T7 sequence (P51812 398-740 limits assumed): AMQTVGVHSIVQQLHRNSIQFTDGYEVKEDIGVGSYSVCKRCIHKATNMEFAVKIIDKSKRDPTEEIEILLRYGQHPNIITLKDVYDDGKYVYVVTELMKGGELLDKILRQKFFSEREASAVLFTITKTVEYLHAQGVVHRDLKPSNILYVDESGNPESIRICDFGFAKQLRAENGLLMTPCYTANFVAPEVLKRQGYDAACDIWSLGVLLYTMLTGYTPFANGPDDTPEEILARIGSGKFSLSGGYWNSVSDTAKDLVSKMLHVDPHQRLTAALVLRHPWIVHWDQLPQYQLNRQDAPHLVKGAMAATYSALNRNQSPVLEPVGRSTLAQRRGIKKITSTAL

CDK2 = molecular target: T8, CDK2 (Homo sapiens, UniProt P24941); test: KINOMEscan; format: binding; settings: read-out: % Ctrl
T8 construct: purchased DiscoveRx KINOMEscan

MAP3K4 = molecular target: T9, MAP3K4 (Homo sapiens, UniProt Q9Y6R4); test: KINOMEscan; format: binding; settings: read-out: % Ctrl
T9 construct: purchased DiscoveRx KINOMEscan

PIP5K2C = molecular target: T10, PIP5K2C (Homo sapiens, UniProt Q8TBX8); test: KINOMEscan; format: binding; settings: read-out: % Ctrl
T10 construct: purchased DiscoveRx KINOMEscan
T10 sequence (Q8TBX8 whole entry): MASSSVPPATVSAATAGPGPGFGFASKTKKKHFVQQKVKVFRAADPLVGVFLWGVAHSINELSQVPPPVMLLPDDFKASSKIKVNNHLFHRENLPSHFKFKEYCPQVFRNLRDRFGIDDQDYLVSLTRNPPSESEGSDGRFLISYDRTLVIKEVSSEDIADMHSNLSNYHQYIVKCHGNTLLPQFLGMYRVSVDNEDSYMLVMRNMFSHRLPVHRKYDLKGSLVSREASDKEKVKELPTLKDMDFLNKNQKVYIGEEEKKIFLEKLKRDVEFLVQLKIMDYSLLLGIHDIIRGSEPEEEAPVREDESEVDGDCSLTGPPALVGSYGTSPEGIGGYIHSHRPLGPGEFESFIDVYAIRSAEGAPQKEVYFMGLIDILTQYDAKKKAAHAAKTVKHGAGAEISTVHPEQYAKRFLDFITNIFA

ALK(C1156Y) = molecular target: T11, ALK(C1156Y) (Homo sapiens, UniProt Q9UM73, C1156Y); test: KINOMEscan; format: binding; settings: read-out: % Ctrl
T11 construct: purchased DiscoveRx KINOMEscan

MRCKB = molecular target: T12, MRCKB (Homo sapiens, UniProt Q9Y5S2); test: KINOMEscan; format: binding; settings: read-out: % Ctrl
T12 construct: purchased DiscoveRx KINOMEscan
T12 sequence (Q9Y5S2 whole entry): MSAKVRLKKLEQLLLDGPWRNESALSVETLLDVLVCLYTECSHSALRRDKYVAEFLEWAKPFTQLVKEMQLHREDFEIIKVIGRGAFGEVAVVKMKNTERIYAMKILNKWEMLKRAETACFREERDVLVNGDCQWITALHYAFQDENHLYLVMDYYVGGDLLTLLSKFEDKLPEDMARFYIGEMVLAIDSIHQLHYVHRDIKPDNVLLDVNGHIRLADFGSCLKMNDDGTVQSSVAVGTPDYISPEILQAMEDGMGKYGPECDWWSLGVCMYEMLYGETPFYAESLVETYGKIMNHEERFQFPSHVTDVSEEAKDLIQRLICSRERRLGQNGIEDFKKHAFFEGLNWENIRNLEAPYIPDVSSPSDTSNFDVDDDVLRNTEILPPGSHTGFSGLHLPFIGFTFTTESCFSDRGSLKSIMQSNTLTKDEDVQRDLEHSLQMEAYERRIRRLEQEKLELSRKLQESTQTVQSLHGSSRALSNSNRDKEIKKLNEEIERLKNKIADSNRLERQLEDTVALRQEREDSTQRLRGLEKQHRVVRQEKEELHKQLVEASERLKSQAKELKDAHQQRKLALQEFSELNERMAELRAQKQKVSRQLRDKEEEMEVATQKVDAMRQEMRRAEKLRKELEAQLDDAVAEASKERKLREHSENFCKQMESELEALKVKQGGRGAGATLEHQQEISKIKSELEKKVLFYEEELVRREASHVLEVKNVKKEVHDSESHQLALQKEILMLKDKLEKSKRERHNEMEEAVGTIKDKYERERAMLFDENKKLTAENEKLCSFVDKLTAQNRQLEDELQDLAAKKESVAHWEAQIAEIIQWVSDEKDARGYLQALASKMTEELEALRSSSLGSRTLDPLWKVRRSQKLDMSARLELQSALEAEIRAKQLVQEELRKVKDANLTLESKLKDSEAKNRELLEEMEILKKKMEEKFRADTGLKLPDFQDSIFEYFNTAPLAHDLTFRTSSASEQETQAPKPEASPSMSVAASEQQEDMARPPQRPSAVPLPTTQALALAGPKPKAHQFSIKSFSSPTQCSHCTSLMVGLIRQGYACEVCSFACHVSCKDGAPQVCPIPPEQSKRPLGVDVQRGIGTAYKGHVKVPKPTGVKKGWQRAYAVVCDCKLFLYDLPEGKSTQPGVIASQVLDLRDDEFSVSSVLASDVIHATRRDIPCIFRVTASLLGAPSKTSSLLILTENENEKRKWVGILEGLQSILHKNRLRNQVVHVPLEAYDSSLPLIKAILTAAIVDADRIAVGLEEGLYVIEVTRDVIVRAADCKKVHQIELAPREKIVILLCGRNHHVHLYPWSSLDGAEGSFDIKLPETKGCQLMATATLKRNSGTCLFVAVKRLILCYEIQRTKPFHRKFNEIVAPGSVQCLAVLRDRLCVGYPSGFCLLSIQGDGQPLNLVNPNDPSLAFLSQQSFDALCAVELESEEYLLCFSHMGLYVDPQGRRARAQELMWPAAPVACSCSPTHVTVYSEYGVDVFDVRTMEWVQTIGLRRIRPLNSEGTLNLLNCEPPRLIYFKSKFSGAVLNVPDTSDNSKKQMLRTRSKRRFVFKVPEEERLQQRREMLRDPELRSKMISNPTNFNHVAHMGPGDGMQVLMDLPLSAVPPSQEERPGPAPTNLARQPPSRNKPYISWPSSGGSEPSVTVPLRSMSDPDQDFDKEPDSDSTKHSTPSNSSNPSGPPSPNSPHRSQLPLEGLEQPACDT

FGFR3 = molecular target: T13, FGFR3 (Homo sapiens, UniProt P22607); test: KINOMEscan; format: binding; settings: read-out: % Ctrl
T13 construct: purchased DiscoveRx KINOMEscan

KIT-autoi. = molecular target: T14, KIT-autoi. (Homo sapiens, UniProt P10721); test: KINOMEscan; format: binding; settings: read-out: % Ctrl
T14 construct: purchased DiscoveRx KINOMEscan

PIK3CA = molecular target: T15, PIK3CA (Homo sapiens, UniProt P42336); test: KINOMEscan; format: binding; settings: read-out: % Ctrl
T15 construct: purchased DiscoveRx KINOMEscan

PIP5K1A = molecular target: T16, PIP5K1A (Homo sapiens, UniProt Q99755); test: KINOMEscan; format: binding; settings: read-out: % Ctrl
T16 construct: purchased DiscoveRx KINOMEscan
T16 sequence (Q99755 whole entry): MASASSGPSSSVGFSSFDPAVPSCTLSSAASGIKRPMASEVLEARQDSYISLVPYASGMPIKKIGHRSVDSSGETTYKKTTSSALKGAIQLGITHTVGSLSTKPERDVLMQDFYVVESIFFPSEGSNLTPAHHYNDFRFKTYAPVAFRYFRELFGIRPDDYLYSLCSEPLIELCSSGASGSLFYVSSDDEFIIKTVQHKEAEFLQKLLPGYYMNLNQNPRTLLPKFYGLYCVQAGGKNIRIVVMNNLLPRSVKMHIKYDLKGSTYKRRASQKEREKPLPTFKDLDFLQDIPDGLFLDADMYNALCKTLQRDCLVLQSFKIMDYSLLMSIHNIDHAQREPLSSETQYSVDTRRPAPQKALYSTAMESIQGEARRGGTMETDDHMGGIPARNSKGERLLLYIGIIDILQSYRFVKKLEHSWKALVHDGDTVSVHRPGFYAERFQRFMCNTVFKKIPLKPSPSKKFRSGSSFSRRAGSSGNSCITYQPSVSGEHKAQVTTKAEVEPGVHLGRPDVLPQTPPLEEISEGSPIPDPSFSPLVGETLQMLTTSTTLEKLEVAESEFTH

ABL1(M351T)-P = molecular target: T17, ABL1(M351T)-P (Homo sapiens, UniProt P00519, M351T); test: KINOMEscan; format: binding; settings: read-out: % Ctrl
T17 construct: purchased DiscoveRx KINOMEscan

LTK = molecular target: T18, LTK (Homo sapiens, UniProt P29376); test: KINOMEscan; format: binding; settings: read-out: % Ctrl
T18 construct: purchased DiscoveRx KINOMEscan

**Q.** Which results are given for `CN1CCC(CNc2ccc3ncc(C(=O)Nc4cccc(OC(F)(F)F)c4)n3n2)CC1` [Cpd 2]?
**A.** remaining binding at 1 µM (BLK): 100%; IC50 (TYK2): 65 µM; remaining binding at 1 µM (CDC2L2): 99%; remaining binding at 1 µM (GCN2(KD2,S808G)): 73%; remaining binding at 1 µM (PAK4): 100%; Acridine Orange staining (LMP), fluorescence microscopy (re-plated PDAC2 spheres; 5 µM, 2 h): greatly reduced lysosomal staining in the far-red channel; AO mean far-red fluorescence intensity (MFI), flow cytometry (re-plated PDAC2 spheres; 1.25, 2.5 or 5 µM, 6 h and 24 h): decreasing overall AO mean far-red fluorescence intensity; remaining binding at 1 µM (EGFR(L858R)): 94%; remaining binding at 1 µM (RSK2(KD2-C-t.)): 100%; remaining binding at 1 µM (CDK2): 100%; remaining binding at 1 µM (MAP3K4): 86%; remaining binding at 1 µM (PIP5K2C): 58%; remaining binding at 1 µM (ALK(C1156Y)): 85%; remaining binding at 1 µM (MRCKB): 100%; remaining binding at 1 µM (FGFR3): 98%; remaining binding at 1 µM (KIT-autoi.): 100%; remaining binding at 1 µM (PIK3CA): 100%; remaining binding at 1 µM (PIP5K1A): 100%; remaining binding at 1 µM (ABL1(M351T)-P): 100%; remaining binding at 1 µM (LTK): 93%
